Results reported in patent US8084621B2, “3-Pyrrolo[b]cyclohexylene-2-dihydroindolinone derivatives and uses thereof” (Jiangsu Simcere Pharmaceutical R&D Co. Ltd., priority 2006, dated 2011).

Tests used:
Assay type in all cases: cell-based
[1] = system: Human Hepatocellular Carcinoma Cell Line (HEPG2); assay: Tumor cell proliferation assay (MTT), HEPG2; conditions: for inhibition at 10 µM: concentration of 10^−5 mol/L, preliminary screening, 72 hours, read-out: Inhibition rate % HEPG2; for IC50: secondary screening, 48 hours
Description: (§1) The assay used generally is the blue tetrazolium bromide (MTT) method. […] The amount of formazan can be detected by the microplate reader through the absorption value at 570 nm. The amount of formazan product generated is proportional to the number of living cells in the sample, so the OD value may reflect the number of living cells and the ability of a test drug to inhibit or kill cells. The MTT assay may be used in determining the ability of different compounds of the present invention to inhibit one or more cancer cells proliferation. Similar assays can be designed along the same lines for any cancer cell using techniques well known in the art.
(§2) The assay used generally is the blue tetrazolium bromide (MTT) method. […] Intracellular purple formazan salt crystals can be solved in DMSO and the absorption value at 570 nm is detected by the microplate reader, then the number of living cells can be detected indirectly. So MTT assay may be used to determine the ability of a compound of the present invention to inhibit cell proliferation. Similar assays can be designed along the same lines for any cancer cell using techniques well known in the art.
2.2.8 Human Hepatocellular Carcinoma Cell Line (HEPG2);
(§3) The cells of 2.2.8, 2.2.9 cultured in DMEM/High glucose medium containing 12% calf serum in the condition of 37° C., 5% CO2.
(§4) 2.3.1 Cell seeding: Trypsinize the cell by 0.05% trypsin-EDTA and add RPMI 1640 medium (DMEM or 5A) containing 12% calf serum. Count the number, then dilute to 1.67×10^4/ml. Add 180 ul/well to the 96 well plate (3000 cells/well).
(§5) 2.3.2 Culture: cells are incubated for 24 hours at 37° C. under 5% CO2.
(§6) 2.3.3 Preliminary screening: The compounds are firstly diluted to 0.1 mol/L with DMSO, and then diluted to three concentrations of 10^−5 mol/L, 10^−6 mol/L and 10^−7 mol/L. Add 20 ul test compounds to the 96 well plate and incubate for 72 hours. Each group has three parallel wells and all experiments repeat three times. Each inhibition ratio is calculated, then an average value of three times is taken as the measured value. 2.3.4 Staining 2.3.4.1 Attached cell: add 20 ul/well MTT to the 96-well plates; incubate for 4 hours in the incubator. Pour out the culture medium in the well and add 100 ul/well DMSO. Shake the plate for 5 min. 2.3.4.2 Suspension cell: add 20 ul/well MTT to the 96-well plates; incubate for 4 hours in the incubator. Add 50 ul/well 20% SDS and incubate for overnight in the incubator. 2.3.5 Reading the plates: read the absorbance A570-A630 with the Infinite M200 microtiter plate reader. Calculate the inhibition ratio of the test compounds. 2.3.6 Secondary screening: the compounds whose inhibition ratio is greater than 50% at the concentrations of 10^−5 mol/L in the preliminary screening will be picked out for Secondary screening. Dilute these compounds to ten concentrations: 10^−5 mol/L, 0.5×10^−5 mol/L, 10^−6 mol/L, 0.8×10^−6 mol/L, 0.6×10^−6 mol/L, 0.4×10^−6 mol/L, 0.2×10^−6 mol/L, 10^−7 mol/L, 0.8×10^−7 mol/L and 0.4×10^−7 mol/L. Add 20 ul test compound solution to the 96 well plate and incubate for 48 hours. Each group has three parallel wells and all experiments repeat for three times. Read the plates and calculate the inhibition ratio according to the preliminary screening method. 2.3.7 Calculate the Inhibition Ratio of Cell Proliferation and the IC50
(§7) According to the inhibition ratio of cell proliferation at the different concentrations of the compound, inhibition ratio of 50% of the test compound is calculated through the logarithm of the concentration of the compound with the Logit [I] linear regression, and an average value of three times is taken as the measured value of a sample.

[2] = system: Human Leukemia Line (K562); assay: Tumor cell proliferation assay (MTT), K562; conditions: for inhibition at 10 µM: concentration of 10^−5 mol/L, preliminary screening, 72 hours, read-out: Inhibition rate % K562; for IC50: secondary screening, 48 hours
Description: as §1, §2
2.2.3 Human Leukemia Line (K562)
The cells of the 2.2.1, 2.2.2, 2.2.3, 2.2.4, 2.2.5 cultured with RPMI 1640 containing 12% calf serum in the condition of 37° C., 5% CO2.
as §4, §5, §6, §7

[3] = system: Human Breast Cancer Cell Line (MCF-7); assay: Tumor cell proliferation assay (MTT), MCF-7; conditions: for inhibition at 10 µM: MCF7, concentration of 10^−5 mol/L, preliminary screening, 72 hours, read-out: Inhibition rate % MCF-7; for IC50: MCF7, secondary screening, 48 hours
Description: as §1, §2
2.2.9 Human Breast Cancer Cell Line (MCF-7);
as §3, §4, §5, §6, §7

## Cc1[nH]c2c(c1C(=O)NCCO)CCC/C2=C1/C(=O)Nc2ccccc21 [I-8, N-(2-hydroxyethyl)-2-methyl-7-[1,2-dihydro-2-oxo-3H-indol-(Z)-3-ylidene]-4,5,6,7-tetrahydro-1H-indole-3-carboxamide]
[1]
  inhibition at 10 µM: 53.8%
[2]
  inhibition at 10 µM: 39.4%
[3]
  inhibition at 10 µM: 25.2%

## CCN(CC)CCNC(=O)c1c(C)[nH]c2c1CCC/C2=C1/C(=O)Nc2ccccc21 [I-5, N-(2-(diethylamino)ethyl)-2-methyl-7-[1,2-dihydro-2-oxo-3H-indol-(Z)-3-ylidene]-4,5,6,7-tetrahydro-1H-indole-3-carboxamide]
[1]
  inhibition at 10 µM: 64.6%
  IC50: 7.73 µM
[2]
  inhibition at 10 µM: 93.3%
  IC50: 2.94 µM
[3]
  inhibition at 10 µM: 50.5%
  IC50: 6.94 µM

## Cc1[nH]c2c(c1C(=O)NCC(O)CN1CCCCC1)CCC/C2=C1/C(=O)Nc2ccccc21 (centres unmarked) [I-73, N-(2-hydroxy-3-(piperidin-1-yl)propyl)-2-methyl-7-[1,2-dihydro-2-oxo-3H-indol-(Z)-3-ylidene]-4,5,6,7-tetrahydro-1H-indole-3-carboxamide]
[1]
  inhibition at 10 µM: 59.3%
  IC50: 7.36 µM
[2]
  inhibition at 10 µM: 94.8%
  IC50: 0.72 µM
[3]
  inhibition at 10 µM: 43.4%

## Cc1[nH]c2c(c1C(=O)NCCO)CCC/C2=C1/C(=O)Nc2ccc(F)cc21 [I-9, N-(2-hydroxyethyl)-2-methyl-7-[1,2-dihydro-5-fluoro-2-oxo-3H-indol-(Z)-3-ylidene]-4,5,6,7-tetrahydro-1H-indole-3-carboxamide]
[1]
  inhibition at 10 µM: 47.5%

## Cc1[nH]c2c(c1C(=O)NCC(O)CN1CCCCC1)CCC/C2=C1/C(=O)Nc2ccc(F)cc21 (centres unmarked) [I-74, N-(2-hydroxy-3-(piperidin-1-yl)propyl)-2-methyl-7-[1,2-dihydro-5-fluoro-2-oxo-3H-indol-(Z)-3-ylidene]-4,5,6,7-tetrahydro-1H-indole-3-carboxamide]
[1]
  inhibition at 10 µM: 84.9%
  IC50: 7.22 µM
[2]
  inhibition at 10 µM: 95.1%
  IC50: 0.93 µM
[3]
  inhibition at 10 µM: 70.7%
  IC50: 7.01 µM

## CCN(CC)CCNC(=O)c1c(C)[nH]c2c1CCC/C2=C1/C(=O)Nc2ccc(Cl)cc21 [I-3, N-(2-(diethylamino)ethyl)-2-methyl-7-[1,2-dihydro-5-chloro-2-oxo-3H-indol-(Z)-3-ylidene]-4,5,6,7-tetrahydro-1H-indole-3-carboxamide]
[1]
  inhibition at 10 µM: 98.2%
  IC50: 3.14 µM

## CCN(CC)CC(O)CNC(=O)c1c(C)[nH]c2c1CCC/C2=C1/C(=O)Nc2ccccc21 (centres unmarked) [I-63, N-(3-(diethylamino)-2-hydroxypropyl)-2-methyl-7-[1,2-dihydro-2-oxo-3H-indol-(Z)-3-ylidene]-4,5,6,7-tetrahydro-1H-indole-3-carboxamide]
[1]
  inhibition at 10 µM: 100%
  IC50: 3.15 µM

## Cc1[nH]c2c(c1C(=O)N1CCN(C)CC1)CCC/C2=C1/C(=O)Nc2ccc(F)cc21 [I-14, 2-methyl-3-(4-methylpiperazine-1-carbonyl)-7-[1,2-dihydro-5-fluoro-2-oxo-3H-indol-(Z)-3-ylidene]-4,5,6,7-tetrahydro-1H-indole]
[1]
  inhibition at 10 µM: 30.4%

## CCN(CC)CCNC(=O)c1c(C)[nH]c2c1CCC/C2=C1/C(=O)Nc2ccc(F)cc21 [I-2, N-(2-(diethylamino)ethyl)-2-methyl-7-[1,2-dihydro-5-fluoro-2-oxo-3H-indol-(Z)-3-ylidene]-4,5,6,7-tetrahydro-1H-indole-3-carboxamide]
[1]
  inhibition at 10 µM: 64%
  IC50: 7.27 µM
[2]
  inhibition at 10 µM: 95.3%
  IC50: 3.51 µM
[3]
  inhibition at 10 µM: 55.4%
  IC50: 7.88 µM
